Results reported in patent US8633322B2, “Alkynyl derivatives useful as DPP-1 inhibitors” (Janssen Pharmaceutica NV, priority 2009, dated 2014).
pIC50: −log10 of the molar value.

target: T1, recombinant human DPP-1 (Cathepsin C) (Homo sapiens, UniProt P53634); test: DPP-1 Inhibition Assay (In Vitro), fluorogenic substrate GR-AMC; format: biochemical; settings: room temperature; 0.15 nM DPP-1, 10 uM GR-AMC, pH 7.0; average where tested multiple times
T1 construct: made in house
Description: Test compounds were assessed for DPP-1 (Cathepsin C) inhibitory activity using a fluorogenic substrate, GR-AMC (Glycine-Arginine-amino-4-methylcoumarin, Bachem, 1-1215). The amount of amino-methylcoumarin released is proportional to the DPP-1 activity, and the reaction is monitored kinetically with a Molecular Devices plate reader using black 96-well plates.
All compounds were tested under room temperature conditions. The assay buffer consisted of 50 mM HEPES, pH 7.0, 100 mM NaCl, 2 mM glutathione (GSH), and 0.002% TWEEN 20. GSH and TWEEN 20 were added to the buffer fresh daily. Just prior to use, an in-house preparation of recombinant human DPP-1 (240 μM stock, MW 49.6 kD) was diluted 600-fold in assay buffer containing fresh 2 mM dithiothreitol (DTT) to activate the enzyme, then diluted into assay buffer (without DTT) 133-fold for a DPP-1 working solution of 3 nM. Test compounds were diluted in DMSO for 20× their final assay concentrations.
Additions to a 96-well black Costar 3915 plates were as follows: 90 μL of 11 μM GR-AMC, 5 μL test compound (followed by mixing), and 5 μL 3 nM DPP1 to start the reaction. Fluorescent reactions were monitored kinetically at 360 nm excitation, 440 nm emission on a Molecular Devices Spectramax XPS reader. The Softmax Pro software of the reader determined the initial velocity of the selected data (the first 3-5 minutes of the reaction), and the best linear regression fit of the initial kinetic data. Final assay conditions were 0.15 nM DPP-1, 10 uM GR-AMC, 50 mM HEPES, pH 7.0, 100 mM NaCl, 2 mM GSH, 0.002% TWEEN 20, 1 uM DTT, 5.0% DMSO. Initial velocity rates were plotted vs. test compound concentration by use of a four-parameter logistics equation (nonlinear regression, sigmoidal dose-response (variable slope), with fixed Hill (1.0) using GraphPad Prism® software for determination of DPP-1 IC50. Within-run assay coefficient of variation (CV) was generally <10%; between-run CV <20%.
Representative compounds of the present invention were tested according to the procedure as described above, with results as listed in Table 2, below. Additionally, Table 2 below lists the measured mass for said representative compounds of the present invention, more particularly the mass of the MH^+ ion.

T1 sequence (P53634 25-463): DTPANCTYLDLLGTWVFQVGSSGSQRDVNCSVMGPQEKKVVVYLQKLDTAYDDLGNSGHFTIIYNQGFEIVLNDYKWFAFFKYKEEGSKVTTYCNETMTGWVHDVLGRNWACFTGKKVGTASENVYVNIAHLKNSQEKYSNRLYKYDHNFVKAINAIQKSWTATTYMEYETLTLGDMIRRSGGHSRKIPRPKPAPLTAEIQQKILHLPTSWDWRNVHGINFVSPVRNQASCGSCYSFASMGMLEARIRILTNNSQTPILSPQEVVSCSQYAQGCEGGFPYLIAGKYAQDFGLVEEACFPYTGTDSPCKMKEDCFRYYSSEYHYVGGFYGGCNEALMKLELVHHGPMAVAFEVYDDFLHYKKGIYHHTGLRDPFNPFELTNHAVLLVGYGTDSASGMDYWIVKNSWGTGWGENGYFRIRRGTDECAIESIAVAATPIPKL

| Structure (SMILES) | pIC50 |
| --- | --- |
| N[C@@H](Cc1ccccc1)C(=O)NCCCC#Cc1cccc(OC2CCNCC2)c1 [Compound 1] | 4.82 |
| C#CC[C@H](N)C(=O)NCCCC#Cc1cccc(OC2CCNCC2)c1 [Compound 3, (S)-2-amino-N-(5-(3-(piperidin-4-yloxy)phenyl)pent-4-ynyl)pent-4-ynamide] | 6.41 |
| C#CC[C@H](N)C(=O)NCCC#Cc1cccc(OC2CCNCC2)c1 [Compound 6, (S)-2-amino-N-(4-(3-(piperidin-4-yloxy)phenyl)but-3-ynyl)pent-4-ynamide] | 5.61 |
| C#CC[C@H](N)C(=O)NCCCC#Cc1cc(OC)cc(OC2CCNCC2)c1 [Compound 7, (S)-2-amino-N-(5-(3-methoxy-5-(piperidin-4-yloxy)phenyl)pent-4-ynyl)pent-4-ynamide] | 5.80 |
| C=CCC[C@H](N)C(=O)NCCCC#Cc1cccc(OC2CCNCC2)c1 [Compound 8] | 5.79 |
| CC[C@H](N)C(=O)NCCCC#Cc1cccc(OC2CCNCC2)c1 [Compound 9] | 5.86 |
| N[C@@H](CC1CC1)C(=O)NCCCC#Cc1cccc(OC2CCNCC2)c1 [Compound 11] | 4.82 |
| CCCC[C@H](N)C(=O)NCCCC#Cc1cccc(OC2CCNCC2)c1 [Compound 12] | 5.23 |
| NCCC[C@H](N)C(=O)NCCCC#Cc1cccc(OC2CCNCC2)c1 [Compound 13] | 4.01 |
| N[C@@H](CCO)C(=O)NCCCC#Cc1cccc(OC2CCNCC2)c1 [Compound 15, (S)-2-amino-4-hydroxy-N-(5-(3-(piperidin-4-yloxy)phenyl)pent-4-ynyl)butanamide] | 5.60 |
| CC(C)[C@H](N)C(=O)NCCCC#Cc1cccc(OC2CCNCC2)c1 [Compound 16, (S)-2-amino-3-methyl-N-(5-(3-(piperidin-4-yloxy)phenyl)pent-4-ynyl)butanamide] | 4.89 |
| CCC[C@H](N)C(=O)NCCCC#Cc1cccc(OC2CCNCC2)c1 [Compound 18, (S)-2-amino-N-(5-(3-(piperidin-4-yloxy)phenyl)pent-4-ynyl)pentanamide] | 5.77 |
| N[C@@H](Cn1cccn1)C(=O)NCCCC#Cc1cccc(OC2CCNCC2)c1 [Compound 19, (S)-2-amino-N-(5-(3-(piperidin-4-yloxy)phenyl)pent-4-ynyl)-3-(1H-pyrazol-1-yl)propanamide] | 5.04 |
| N[C@@H](Cc1c[nH]cn1)C(=O)NCCCC#Cc1cccc(OC2CCNCC2)c1 [Compound 20] | 6.28 |
| C#CC[C@H](N)C(=O)NCCCC#Cc1cccc(-c2ccccc2)c1 [Compound 24] | 6.40 |
| CC(C)C[C@H](N)C(=O)NCCCC#Cc1cccc(OC2CCNCC2)c1 [Compound 31] | 4.52 |
| N[C@@H](Cc1cccnc1)C(=O)NCCCC#Cc1cccc(OC2CCNCC2)c1 [Compound 33] | 4.82 |
| CC[C@H](N)C(=O)NCCCC#Cc1cccc(OC)c1 [Compound 35] | 5.24 |
| CC[C@H](N)C(=O)NCCCC#Cc1ccc(F)c(F)c1 [Compound 39] | 6.46 |
| CC[C@H](N)C(=O)NCCCC#Cc1ccc(OC)cc1 [Compound 40] | 6.67 |
| CC[C@H](N)C(=O)NCCCC#Cc1cccc2ccccc12 [Compound 41] | 5.60 |

| Structure (SMILES) | pIC50 |
| --- | --- |
| CC[C@H](N)C(=O)NCCCC#Cc1c(C)cccc1C [Compound 49] | 5.48 |
| CC[C@H](N)C(=O)NCCCC#Cc1ccc2c(c1)OCO2 [Compound 51] | 4.82 |
| CC[C@H](N)C(=O)NCCCC#Cc1c(C)cc(C)cc1C [Compound 55] | 5.02 |
| CC[C@H](N)C(=O)NCCCC#Cc1ccc(S(C)(=O)=O)cc1 [Compound 56, (S)-2-amino-N-(5-(4-(methylsulfonyl)phenyl)pent-4-ynyl)butanamide] | 4.74 |
| CC[C@H](N)C(=O)NCCCC#Cc1ccc(OC)c(OC)c1 [Compound 57] | 4.77 |
| CC[C@H](N)C(=O)NCCCC#Cc1ccc(C(F)(F)F)cc1 [Compound 58] | 4.96 |
| CC[C@H](N)C(=O)NCCCC#Cc1cc(OC)cc(OC)c1 [Compound 59] | 4.92 |
| CC[C@H](N)C(=O)NCCCC#Cc1ccc2sccc2c1 [Compound 60] | 5.22 |
| CC[C@H](N)C(=O)NCCCC#Cc1ccccc1-c1ccccc1 [Compound 61] | 5.17 |
| N[C@@H](Cc1cccs1)C(=O)NCCCC#Cc1cccc(OC2CCNCC2)c1 [Compound 63, (S)-2-amino-N-(5-(3-(piperidin-4-yloxy)phenyl)pent-4-ynyl)-3-(thiophen-2-yl)propanamide] | 6.82 |
| CC[C@@H](N)C(=O)NCCCC#Cc1cccc(OC2CCNCC2)c1 [Compound 71] | < 4.00 |
| CC[C@H](N)C(=O)NCCCC#Cc1ccc2ccccc2c1 [Compound 73] | 4.82 |
| CC[C@H](N)C(=O)NCCCC#Cc1ccccc1C(F)(F)F [Compound 74] | 4.59 |
| CC[C@H](N)C(=O)NCCCC#Cc1ccccc1C1CCCCC1 [Compound 75] | 4.41 |
| CC[C@H](N)C(=O)NCCCC#Cc1c(C)c(C)cc(C)c1C [Compound 76] | 4.85 |
| CC[C@H](N)C(=O)NCCCC#Cc1cc(C)ccc1C [Compound 77] | 4.48 |
| CC[C@H](N)C(=O)NCCCC#Cc1cccc(O[C@@H]2CCCNC2)c1 [Compound 78, (S)-2-amino-N-(5-(3-((R)-piperidin-3-yloxy)phenyl)pent-4-ynyl)butanamide] | 5.41 |
| C#CC[C@H](N)C(=O)NCCCC#Cc1cccc(O[C@@H]2CCCNC2)c1 [Compound 79, (S)-2-amino-N-(5-(3-((R)-piperidin-3-yloxy)phenyl)pent-4-ynyl)pent-4-ynamide] | 5.54 |
| CC[C@H](N)C(=O)NCCCC#Cc1cccc(O[C@H]2CCCNC2)c1 [Compound 80, (S)-2-amino-N-(5-(3-((S)-piperidin-3-yloxy)phenyl)pent-4-ynyl)butanamide] | 5.64 |
| CC[C@H](N)C(=O)NCCCC#Cc1ccc(-c2ccccc2)cc1 [Compound 81] | 5.25 |
| CC[C@H](N)C(=O)NCCCC#Cc1cccc2cnccc12 [Compound 82] | 4.77 |

| Structure (SMILES) | pIC50 |
| --- | --- |
| CC[C@H](N)C(=O)NCCCC#Cc1ccc(C)c2ccccc12 [Compound 83] | 5.07 |
| CC[C@H](N)C(=O)NCCCC#Cc1ccc(F)c2ccccc12 [Compound 84] | 5.14 |
| C#CC[C@H](N)C(=O)NCCCC#Cc1cccc(O[C@H]2CCCNC2)c1 [Compound 85, (S)-2-amino-N-(5-(3-((S)-piperidin-3-yloxy)phenyl)pent-4-ynyl)pent-4-ynamide] | 5.92 |
| CC[C@H](N)C(=O)NCCCC#Cc1ccc(OCc2ccccc2)cc1 [Compound 86] | 5.62 |
| CC[C@H](N)C(=O)NCCCC#Cc1c(OC)ccc2ccccc12 [Compound 87] | 4.89 |
| CC[C@H](N)C(=O)NCCCC#Cc1cncc2ccccc12 [Compound 89] | 5.10 |
| N[C@@H](Cc1ccccn1)C(=O)NCCCC#Cc1cccc(OC2CCNCC2)c1 [Compound 90] | 4.92 |
| CC[C@@H](N)C(=O)NCCCC#Cc1cccc(OC)c1 [Compound 92] | 4.77 |
| CC[C@H](N)C(=O)NCCCC#Cc1ccc(C(C)C)cc1 [Compound 95] | 5.92 |
| CC[C@H](N)C(=O)NCCCC#Cc1ccc2c(c1)OCCO2 [Compound 97] | 5.30 |
| CC[C@H](N)C(=O)NCCCC#Cc1ccccc1 [Compound 98] | 5.10 |
| CC[C@H](N)C(=O)NCCCC#Cc1ccccc1OC [Compound 99] | 4.92 |
| CC[C@H](N)C(=O)NCCCC#Cc1ccc(NC(C)=O)cc1 [Compound 100] | 5.20 |
| CC[C@H](N)C(=O)NCCCC#Cc1ccc2c(c1)Cc1ccccc1-2 [Compound 101] | 5.77 |
| CC[C@H](N)C(=O)NCCCC#Cc1cccc(F)c1F [Compound 102] | 5.21 |
| CC[C@H](N)C(=O)NCCCC#Cc1ccccc1NC(C)=O [Compound 103] | 5.27 |
| CC[C@H](N)C(=O)NCCCC#Cc1ccccc1O [Compound 104] | 5.10 |
| CC[C@H](N)C(=O)NCCCC#Cc1c(O)ccc2ccccc12 [Compound 105] | < 5.00 |
| CC[C@H](N)C(=O)NCCCC#Cc1c(F)ccc2ccccc12 [Compound 106] | 5.22 |
